Target: T1, WT TREK-2 channels (Homo sapiens, UniProt P57789)
T1 construct: expressed in transfected cells; host or cells: Xenopus laevis oocytes (cRNA injection), excised inside-out patches
T1 sequence (P57789 1-538): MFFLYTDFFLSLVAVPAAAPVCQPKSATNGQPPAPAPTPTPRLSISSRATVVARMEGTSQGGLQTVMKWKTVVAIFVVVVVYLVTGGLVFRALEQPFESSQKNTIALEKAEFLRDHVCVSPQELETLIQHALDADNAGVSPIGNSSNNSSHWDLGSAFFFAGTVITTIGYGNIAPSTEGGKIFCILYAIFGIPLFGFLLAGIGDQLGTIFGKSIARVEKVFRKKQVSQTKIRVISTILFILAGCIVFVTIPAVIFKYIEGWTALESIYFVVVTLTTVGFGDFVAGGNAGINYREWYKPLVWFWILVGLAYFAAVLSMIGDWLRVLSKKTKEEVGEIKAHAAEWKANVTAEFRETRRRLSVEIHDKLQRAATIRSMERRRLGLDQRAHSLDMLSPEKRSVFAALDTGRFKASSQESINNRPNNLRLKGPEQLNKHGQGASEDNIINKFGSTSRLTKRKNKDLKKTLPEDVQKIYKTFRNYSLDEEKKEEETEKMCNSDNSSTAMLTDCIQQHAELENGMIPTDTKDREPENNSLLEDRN
Assay: Conductance-voltage (G-V) curves from tail currents, V1/2 (intracellular Rb+)
Assay type: cell-based
Excerpt: The voltage-dependent activation mechanism of the SF gate in K2P channels allows to estimate the electrical work (ΔG = zFΔV1/2) required for pore opening by fitting the G–V curve to a Boltzmann equation. […] The open state represents the situation of both gates being simultaneously open but voltage can only exert force on the SF gate that functions as voltage sensor. […] We further tested whether mutations that open the lower gate (L262A and L264A) would affect the extracellular pH sensitivity. […] We further explored this concept of allosteric coupling using the mutations identified in the functional alanine screen of TM2 and TM4. […]
Conductance-voltage (G–V) relationships were determined from tail currents recorded at a holding potential (VH) of −80 mV after 300 ms depolarizing steps as indicated in the respective figure legend. Data were analyzed with a single Boltzmann fit following Eq. 6:6 GV=Imax/1+e^V−V1/2/slope+Ibase where V1/2 represents the voltage of half-maximal activation, s is the slope factor and Imax and Ibase represent the upper and lower asymptotes. Under appropriate experimental conditions, you can use slope to calculate the valence (charge) of the ion moving across the channel. Slope equals R * T/ z * F where R is the universal gas constant, T is temperature in K, F is the Faraday constant, and z is the valence.

CCCCC[N+](CCCCC)(CCCCC)CCCCC [TPenA, Tetra-pentyl-ammonium chloride]
effect of TPenA on the G-V curve (TREK-2, intracellular Rb+): not affected | Normalized current (TREK-2 WT + 0.1 mM TPenA, Voltage 0.000): 0.142 | Normalized current (TREK-2 WT + 0.1 mM TPenA, Voltage 0.005): 0.177 | Normalized current (TREK-2 WT + 0.1 mM TPenA, Voltage 0.010): 0.238 | Normalized current (TREK-2 WT + 0.1 mM TPenA, Voltage 0.015): 0.307 | Normalized current (TREK-2 WT + 0.1 mM TPenA, Voltage 0.020): 0.404 | Normalized current (TREK-2 WT + 0.1 mM TPenA, Voltage 0.025): 0.485 | Normalized current (TREK-2 WT + 0.1 mM TPenA, Voltage 0.030): 0.577 | Normalized current (TREK-2 WT + 0.1 mM TPenA, Voltage 0.035): 0.667 | Normalized current (TREK-2 WT + 0.1 mM TPenA, Voltage 0.040): 0.719 | Normalized current (TREK-2 WT + 0.1 mM TPenA, Voltage 0.045): 0.784 | Normalized current (TREK-2 WT + 0.1 mM TPenA, Voltage 0.050): 0.838 | Normalized current (TREK-2 WT + 0.1 mM TPenA, Voltage 0.055): 0.851 | Normalized current (TREK-2 WT + 0.1 mM TPenA, Voltage 0.060): 0.883 | Normalized current (TREK-2 WT + 0.1 mM TPenA, Voltage 0.065): 0.906 | Normalized current (TREK-2 WT + 0.1 mM TPenA, Voltage 0.070): 0.921 | Normalized current (TREK-2 WT + 0.1 mM TPenA, Voltage 0.075): 0.924 | Normalized current (TREK-2 WT + 0.1 mM TPenA, Voltage 0.080): 0.944 | Normalized current (TREK-2 WT + 0.1 mM TPenA, Voltage 0.085): 0.936 | Normalized current (TREK-2 WT + 0.1 mM TPenA, Voltage 0.090): 0.949 | Normalized current (TREK-2 WT + 0.1 mM TPenA, Voltage 0.095): 0.963 | Normalized current (TREK-2 WT + 0.1 mM TPenA, Voltage 0.100): 0.966 | Normalized current (TREK-2 WT + 0.1 mM TPenA, Voltage 0.105): 0.964 | Normalized current (TREK-2 WT + 0.1 mM TPenA, Voltage 0.110): 0.962 | Normalized current (TREK-2 WT + 0.1 mM TPenA, Voltage 0.115): 0.961 | Normalized current (TREK-2 WT + 0.1 mM TPenA, Voltage 0.120): 0.949 | Normalized current (TREK-2 WT + 0.1 mM TPenA, Voltage 0.125): 0.915 | Normalized current (TREK-2 WT + 0.1 mM TPenA, Voltage 0.130): 0.965 | Normalized current (TREK-2 WT + 0.1 mM TPenA, Voltage 0.135): 0.962 | Normalized current (TREK-2 WT + 0.1 mM TPenA, Voltage 0.140): 0.941 | Normalized current (TREK-2 WT + 0.1 mM TPenA, Voltage 0.145): 0.970 | Normalized current (TREK-2 WT + 0.1 mM TPenA, Voltage 0.150): 0.939 | Normalized current (TREK-2 WT + 0.1 mM TPenA, Voltage -0.005): 0.115 | Normalized current (TREK-2 WT + 0.1 mM TPenA, Voltage -0.010): 0.097 | Normalized current (TREK-2 WT + 0.1 mM TPenA, Voltage -0.015): 0.086 | Normalized current (TREK-2 WT + 0.1 mM TPenA, Voltage -0.020): 0.073 | Normalized current (TREK-2 WT + 0.1 mM TPenA, Voltage -0.025): 0.072 | Normalized current (TREK-2 WT + 0.1 mM TPenA, Voltage -0.030): 0.066 | Normalized current (TREK-2 WT + 0.1 mM TPenA, Voltage -0.035): 0.062 | Normalized current (TREK-2 WT + 0.1 mM TPenA, Voltage -0.040): 0.062 | Normalized current (TREK-2 WT + 0.1 mM TPenA, Voltage -0.045): 0.059 | Normalized current (TREK-2 WT + 0.1 mM TPenA, Voltage -0.050): 0.058 | Normalized current (TREK-2 WT + 0.1 mM TPenA, Voltage -0.055): 0.055 | Normalized current (TREK-2 WT + 0.1 mM TPenA, Voltage -0.060): 0.055 | Normalized current (TREK-2 WT + 0.1 mM TPenA, Voltage -0.065): 0.050 | Normalized current (TREK-2 WT + 0.1 mM TPenA, Voltage -0.070): 0.049 | Normalized current (TREK-2 WT + 0.1 mM TPenA, Voltage -0.075): 0.050 | Normalized current (TREK-2 WT + 0.1 mM TPenA, Voltage -0.080): 0.048 | Normalized current (TREK-2 WT + 0.1 mM TPenA, Voltage -0.085): 0.046 | Normalized current (TREK-2 WT + 0.1 mM TPenA, Voltage -0.090): 0.044 | Normalized current (TREK-2 WT + 0.1 mM TPenA, Voltage -0.095): 0.044 | Normalized current (TREK-2 WT + 1 mM TPenA, Voltage 0.000): 0.164 | Normalized current (TREK-2 WT + 1 mM TPenA, Voltage 0.005): 0.199 | Normalized current (TREK-2 WT + 1 mM TPenA, Voltage 0.010): 0.243 | Normalized current (TREK-2 WT + 1 mM TPenA, Voltage 0.015): 0.286 | Normalized current (TREK-2 WT + 1 mM TPenA, Voltage 0.020): 0.362 | Normalized current (TREK-2 WT + 1 mM TPenA, Voltage 0.025): 0.446 | Normalized current (TREK-2 WT + 1 mM TPenA, Voltage 0.030): 0.519 | Normalized current (TREK-2 WT + 1 mM TPenA, Voltage 0.035): 0.589 | Normalized current (TREK-2 WT + 1 mM TPenA, Voltage 0.040): 0.634 | Normalized current (TREK-2 WT + 1 mM TPenA, Voltage 0.045): 0.688 | Normalized current (TREK-2 WT + 1 mM TPenA, Voltage 0.050): 0.702 | Normalized current (TREK-2 WT + 1 mM TPenA, Voltage 0.055): 0.751 | Normalized current (TREK-2 WT + 1 mM TPenA, Voltage 0.060): 0.768 | Normalized current (TREK-2 WT + 1 mM TPenA, Voltage 0.065): 0.790 | Normalized current (TREK-2 WT + 1 mM TPenA, Voltage 0.070): 0.818 | Normalized current (TREK-2 WT + 1 mM TPenA, Voltage 0.075): 0.805 | Normalized current (TREK-2 WT + 1 mM TPenA, Voltage 0.080): 0.838 | Normalized current (TREK-2 WT + 1 mM TPenA, Voltage 0.085): 0.838 | Normalized current (TREK-2 WT + 1 mM TPenA, Voltage 0.090): 0.887 | Normalized current (TREK-2 WT + 1 mM TPenA, Voltage 0.095): 0.885 | Normalized current (TREK-2 WT + 1 mM TPenA, Voltage 0.100): 0.885 | Normalized current (TREK-2 WT + 1 mM TPenA, Voltage 0.105): 0.883 | Normalized current (TREK-2 WT + 1 mM TPenA, Voltage 0.110): 0.905 | Normalized current (TREK-2 WT + 1 mM TPenA, Voltage 0.115): 0.909 | Normalized current (TREK-2 WT + 1 mM TPenA, Voltage 0.120): 0.967 | Normalized current (TREK-2 WT + 1 mM TPenA, Voltage 0.125): 0.928 | Normalized current (TREK-2 WT + 1 mM TPenA, Voltage 0.130): 0.900 | Normalized current (TREK-2 WT + 1 mM TPenA, Voltage 0.135): 0.929 | Normalized current (TREK-2 WT + 1 mM TPenA, Voltage 0.140): 0.939 | Normalized current (TREK-2 WT + 1 mM TPenA, Voltage 0.145): 0.922 | Normalized current (TREK-2 WT + 1 mM TPenA, Voltage 0.150): 0.939 | Normalized current (TREK-2 WT + 1 mM TPenA, Voltage -0.005): 0.135 | Normalized current (TREK-2 WT + 1 mM TPenA, Voltage -0.010): 0.126 | Normalized current (TREK-2 WT + 1 mM TPenA, Voltage -0.015): 0.111 | Normalized current (TREK-2 WT + 1 mM TPenA, Voltage -0.020): 0.109 | Normalized current (TREK-2 WT + 1 mM TPenA, Voltage -0.025): 0.110 | Normalized current (TREK-2 WT + 1 mM TPenA, Voltage -0.030): 0.103 | Normalized current (TREK-2 WT + 1 mM TPenA, Voltage -0.035): 0.102 | Normalized current (TREK-2 WT + 1 mM TPenA, Voltage -0.040): 0.096 | Normalized current (TREK-2 WT + 1 mM TPenA, Voltage -0.045): 0.095 | Normalized current (TREK-2 WT + 1 mM TPenA, Voltage -0.050): 0.089 | Normalized current (TREK-2 WT + 1 mM TPenA, Voltage -0.055): 0.092 | Normalized current (TREK-2 WT + 1 mM TPenA, Voltage -0.060): 0.088 | Normalized current (TREK-2 WT + 1 mM TPenA, Voltage -0.065): 0.090 | Normalized current (TREK-2 WT + 1 mM TPenA, Voltage -0.070): 0.088 | Normalized current (TREK-2 WT + 1 mM TPenA, Voltage -0.075): 0.085 | Normalized current (TREK-2 WT + 1 mM TPenA, Voltage -0.080): 0.084 | Normalized current (TREK-2 WT + 1 mM TPenA, Voltage -0.085): 0.087 | Normalized current (TREK-2 WT + 1 mM TPenA, Voltage -0.090): 0.084 | Normalized current (TREK-2 WT + 1 mM TPenA, Voltage -0.095): 0.081
